# Measurements as given in a melting point compilation (Tetko et al.; mined from patent text by program, amines drawn as free bases though some values may be those of a salt).
row,melting point [°C],Structure (SMILES)
1,145 to 146,CC(C)(C)OC(=O)N[C@@H](Cc1ccccc1)C[C@H](O)[C@H](Cc1ccccc1)N(Cc1ccccc1)Cc1ccccc1
2,179 to 183,NNc1ccc(S(=O)(=O)c2ccc(NN)cc2)cc1
3,62,C#Cc1ccc(C(=O)OC)c(O)c1
4,172 to 174,C=CCOc1ccc(C(C)(C)C)cc1C(C(N)=O)c1ccccc1 (configuration not stated)
5,198 to 200,CC(C(=O)O)c1cc(Cl)c(N2CCOCC2)cc1O (configuration not stated)
6,230 to 232,CCOC(=O)c1cc2c(=O)n(CC)c3ccc(Cl)cc3n2c1
7,70,CN1C(=O)CC[C@]2(C)c3ccc(-c4ccc(F)cc4C(F)(F)F)cc3CC[C@@H]12
8,92 to 93,COc1cc(OC)nc(Cc2nscc2C(=O)N(C)c2ccccc2)n1
9,251 to 254,O=C(O)c1ccc2c(ccn2Cc2cccc([N+](=O)[O-])c2)c1
10,166,CC(=O)Nc1ccc(NCCOS(C)(=O)=O)c([N+](=O)[O-])c1
11,156,COc1ccc(-c2cc(=O)c3c(OC)cc(OC)cc3o2)cc1
12,215 to 217,CCCn1nc2c(N)nc3ccccc3c2c1CCNC(=O)C1CC1
13,92 to 94,OCC(O)Cc1nccn1CCCc1cccc(OCc2coc(/C=C/c3ccc(F)cc3F)n2)c1 (configuration not stated)
14,110 to 113,COc1ccc(O)c(C2(CO)C(=O)N(Cc3ccc(C(F)(F)F)o3)c3ccc(F)cc32)n1 (configuration not stated)
15,77 to 78,COC(=O)COc1cccc2c(CCS(=O)CCc3ccccc3)c(C)oc12 (configuration not stated)
16,184 to 185,O=C(O)COc1cc(Cl)ccc1C(=O)NCc1ccc(OC(F)(F)F)cc1
17,108,Oc1cc(Cl)c(OCc2ccccc2Cl)c(Cl)c1
18,178 to 181,Cc1noc(NS(=O)(=O)c2c(Cc3ccc4c(c3)OCO4)sc3ccccc23)c1Cl
19,205 to 209,Cc1ccc2c(C(=O)O)csc2c1
20,200 to 203,CCOc1cc2ncc(C#N)c(Nc3ccc4c(c3)OCO4)c2cc1OCC
21,58 to 59,CC(C)(C)OC(=O)c1ccccc1CCc1ccccc1N
22,105,Nc1ccc(C2(c3ccc(F)cc3)OCCO2)cc1[N+](=O)[O-]
23,196 to 198,CN1CCN(Cc2ccc(C(=O)Nc3ccc(CO)c(Nc4nccc(-c5cccnc5)n4)c3)cc2)CC1

row,melting point [°C],Structure (SMILES)
1,185 to 186,Cn1c(CCCOc2ccc(CC3SC(=O)NC3=O)cc2)nc2cccnc21 (configuration not stated)
2,121 to 122,Cc1ccc(S(=O)(=O)Nc2ccc(SC#N)cc2[N+](=O)[O-])cc1
3,132 to 133,COc1cccc(CC(=O)O)c1OCCCc1cn(-c2ccc(C)cn2)nc1C(C)C
4,109 to 110,O=P1(c2ccccc2)CCCC1CO (configuration not stated)
5,> 310,N#Cc1cnc2c(oc3ccccc32)c1O
6,88 to 90,COC(=O)c1nc(Oc2ccccc2)c(Cl)c(N)c1Cl
7,93.7 to 95.1,O=C(Nc1ccc(Cl)cc1)c1ccccc1Cl
8,242,COc1ccc(-c2nc3ncccc3[nH]2)c2cc(C(C)C)oc12
9,107,CCCC(CCC)(CC(=O)O)CC(=O)O
10,267 to 268,O=c1cc(-c2ccc(O)c(F)c2)oc2ncccc12
11,264 to 268,Cc1cc(C)c2c(n1)Nc1cc(C)c(C)cc1NC2=O
12,45 to 45.5,CCCCCCCCCCCOC(=O)NCCC
13,257 to 260,Cc1cc2c(cc1Sc1ccc(C(=O)O)cn1)C(C)(C)CCC2(C)C
14,201 to 204,CN1C(=O)CCC2CC(C3=NNC(=O)CC3CO)=CC=C21 (configuration not stated)
15,227 to 228,COc1c2occc2cc2cc(C(=O)O)c(=O)oc12
16,75 to 80,N=C(N)NCCc1ccc(OCCC2Oc3ccccc3N(Cc3cccc4ccccc34)C2=O)cc1 (configuration not stated)
17,236,CS(=O)(=O)c1cc(CCC(=O)O)nc(-c2nc(=O)c3ccc(F)cc3s2)c1
18,> 250,NCC1Cc2cc(-c3ccccc3)cc(-c3ccccc3Cl)c2O1 (configuration not stated)
19,198 to 200,CNc1nc(-c2cccc(N(C)C(=O)c3ccccc3)c2)c2cc(OC)c(OC)cc2n1
20,172 to 177,COc1cc2ncc(C#N)c(Nc3cccc(CSC(C)=O)c3)c2cc1OC
21,83 to 85,O=C(O)CCCCCCCCc1nc(-c2ccccc2)c(-c2ccccc2)o1
22,214 to 216,N=C(NC=Cc1ccc([N+](=O)[O-])cc1)c1ccc([N+](=O)[O-])cc1
23,216 to 217,Nc1ncc(C2OC(CO)C(O)C2O)c(=O)[nH]1 (configuration not stated)

row,melting point [°C],Structure (SMILES)
1,202 to 203,O=c1nc(-c2ccc[nH]2)sc2ccccc12
2,97,CCCn1c2ccccc2c2cc(C(=O)CC(C)=O)ccc21
3,175 to 176,CS(=O)(=O)c1cccnc1S(C)(=O)=O
4,83 to 85,CCCCCCCCCC1CNC(=O)O1 (configuration not stated)
5,245 to 250,CN1CC(c2ccccc2)=C(O)C1=O
6,151,CC1(c2ccccc2NC(c2c(Cl)cccc2Cl)C2CC2)OCCO1 (configuration not stated)
7,140 to 141,COC(=O)C(Cc1cccs1)NC(=O)[C@H](Cc1cccc2ccccc12)NC(=O)OCc1ccccc1 (mixture of isomers)
8,80 to 84,CC(C)(C)c1csc(-c2cc3cc(OCc4ccccc4Cc4nnn[nH]4)ccc3o2)n1
9,185 to 188,COc1ccccc1C(=O)Nc1ccc(C(=O)N2Cc3cccn3Cc3ccccc32)cc1
10,223 to 226,CCC(=O)OCCOCn1cnc2c(=O)[nH]c(N)nc21
11,103 to 105,COC(=O)C(=O)c1ccc(OCCOc2ccc(Cl)cc2)cc1
12,178 to 179,O=C(NCCCCCCc1ccc(-c2ccc(=O)[nH]n2)cc1)c1cccnc1
13,108 to 110,COc1ccc(CCc2ccncc2N)cc1OC1CCCC1
14,262 to 263,O=C(Cn1c(-c2ccc(Cl)cc2)nc2ncccc21)c1ccccc1
15,160 to 162,COc1ccc(Oc2cccc(C(=O)NCCN(O)C(N)=O)c2)cc1
16,214 to 216,COCOc1cc(Cl)ccc1-c1cc(-c2cccc(C(=O)O)c2)c(C#N)c(NC(=O)c2ccco2)n1
17,146 to 148,CC(C)(C)NC(=O)c1ccc(C(F)(F)F)cc1
18,235 to 238,CCCCOc1ccc(S(C)(=O)=O)cc1-c1nc2c(CC)n(CCN3CCOCC3)nc2c(=O)[nH]1
19,111,CCOC(=O)c1cnc2cc(F)c(F)cc2c1Cl
20,273 to 275,O=C1CCC(n2cnc3ccc(Br)cc3c2=O)C(=O)N1 (configuration not stated)
21,193,Cc1cc(-c2cc(C(F)(F)F)n3ncc(-c4cccnc4)c3n2)ccc1Cl
22,216 to 217,O=C(O)c1ccc(CNc2cc(Br)ccc2OCc2ccccc2)cc1
23,137,Cc1oc(-c2ccccc2)nc1COCc1cccc(COc2cc(Cl)ccc2C(=O)O)c1

row,Structure (SMILES),melting point [°C]
1,CN(CCO)C(=O)Nc1ccc2c(c1)C(c1ccccc1F)=NCC(=O)N2C,196 to 198
2,COc1ccc2c(c1)C(=O)NCc1c(-c3nc(C4CC4)no3)ncn1-2,245
3,Cc1ncc2n1-c1ccc(Cl)cc1C(c1ccccc1F)N(C)C2 (configuration not stated),156 to 158
